Test results published in patent publication US20230398130A1, “METHODS AND COMPOSITIONS FOR DIFFERENTIATING STEM CELLS” (Massachusetts Institute of Technology, priority 2020, published 2023).

Experiments:
ISC-enriched organoids [1] = test: Primary screen, 384-well 2.5-D organoid differentiation (ENR+CD, 6 days): basal lysozyme secretion (LYZ.NS); type: cell-based, murine; settings: for Dose.FC.LYZ.NS (log 2 fold change) / Dose.FC.LYZ.NS (log 2 fold change, basal lysozyme secretion): vs plate median
Source text: (§1) High-throughput screening.

ISC-enriched organoids [2] = test: Primary screen, 384-well 2.5-D organoid differentiation (ENR+CD, 6 days): carbachol-induced lysozyme secretion (LYZ.S); type: cell-based, murine; settings: vs plate median; for Dose.FC.LYZ.S (log 2 fold change): primary screen
Source text: as §1

ISC-enriched organoids [3] = test: Primary screen, 384-well 2.5-D organoid differentiation (ENR+CD, 6 days, Target Selective Inhibitor Library, vs whole-plate median): ATP (CellTiter-Glo 3D, CTG); settings: for Dose.FC.CTG (log 2 fold change) / Dose.FC.CTG (log 2 fold change, ATP): vs plate median

| SMILES | Z.LYZ.NS (standard z score) (ISC-enriched organoids [1]; Dose 0.08 uM, primary screen) | Dose.FC.LYZ.NS (log 2 fold change) (ISC-enriched organoids [1]; Dose 0.08 uM, primary screen) | Z.LYZ.NS (standard z score) (ISC-enriched organoids [1]; Dose 0.40 uM, primary screen) | Dose.FC.LYZ.NS (log 2 fold change) (ISC-enriched organoids [1]; Dose 0.40 uM, primary screen) | Z.LYZ.NS (standard z score) (ISC-enriched organoids [1]; Dose 2.00 uM, primary screen) | Dose.FC.LYZ.NS (log 2 fold change) (ISC-enriched organoids [1]; Dose 2.00 uM, primary screen) | Z.LYZ.NS (standard z score) (ISC-enriched organoids [1]; Dose 10.00 uM, primary screen) | Dose.FC.LYZ.NS (log 2 fold change) (ISC-enriched organoids [1]; Dose 10.00 uM, primary screen) | Dose.FC.LYZ.S (log 2 fold change) (ISC-enriched organoids [2]; Dose 0.08 uM) | Dose.FC.LYZ.S (log 2 fold change) (ISC-enriched organoids [2]; Dose 0.40 uM) | Dose.FC.LYZ.S (log 2 fold change) (ISC-enriched organoids [2]; Dose 2.00 uM) | Dose.FC.LYZ.S (log 2 fold change) (ISC-enriched organoids [2]; Dose 10.00 uM) | Z.CTG (standard z score) (ISC-enriched organoids [3]; Dose 0.08 uM, primary screen) | Dose.FC.CTG (log 2 fold change) (ISC-enriched organoids [3]; Dose 0.08 uM, primary screen) | Z.CTG (standard z score) (ISC-enriched organoids [3]; Dose 0.40 uM, primary screen) | Dose.FC.CTG (log 2 fold change) (ISC-enriched organoids [3]; Dose 0.40 uM, primary screen) | Z.CTG (standard z score) (ISC-enriched organoids [3]; Dose 2.00 uM, primary screen) | Dose.FC.CTG (log 2 fold change) (ISC-enriched organoids [3]; Dose 2.00 uM, primary screen) | Z.CTG (standard z score) (ISC-enriched organoids [3]; Dose 10.00 uM, primary screen) | Dose.FC.CTG (log 2 fold change) (ISC-enriched organoids [3]; Dose 10.00 uM, primary screen) | other results |
| --- | --- | --- | --- | --- | --- | --- | --- | --- | --- | --- | --- | --- | --- | --- | --- | --- | --- | --- | --- | --- | --- |
| Cc1ccc(-n2nccn2)c(C(=O)N2CCN(c3nc4cc(Cl)ccc4o3)CC[C@H]2C)c1 [Suvorexant (MK-4305)] | 1.775 | 0.204 | 1.073 | 0.123 | 1.073 | 0.123 | 0.670 | 0.077 | 0.186 | 0.142 | 0.101 | 0.131 | 0.458 | 0.192 | 0.609 | 0.255 | 0.895 | 0.375 | 0.597 | 0.250 |  |
| O=C(Nc1ccncc1)c1cc([N+](=O)[O-])ccc1Cl [T0070907] | 0.084 | 0.010 | −0.029 | −0.003 | 0.373 | 0.043 | −1.897 | −0.218 | −0.005 | −0.001 | 0.081 | −0.312 | 0.267 | 0.112 | 0.062 | 0.026 | 0.119 | 0.050 | −1.806 | −0.756 |  |
| CNC(=O)c1ccccc1Nc1nc(Nc2ccc(N3CCOCC3)cc2OC)ncc1Cl [TAE226 (NVP-TAE226)] | −2.226 | −0.256 | −2.650 | −0.304 | −2.813 | −0.323 | −2.545 | −0.292 | −0.333 | −0.376 | −0.400 | −0.426 | −1.127 | −0.472 | −2.689 | −1.126 | −3.068 | −1.284 | −2.363 | −0.989 |  |
| CNC(=O)c1ccc2cc([C@@]3(O)CCn4cncc43)ccc2c1 [TAK-700 (Orteronel)] | 1.535 | 0.176 | 1.585 | 0.182 | 1.058 | 0.121 | −0.018 | −0.002 | 0.113 | 0.090 | 0.093 | 0.032 | −0.659 | −0.276 | −0.056 | −0.024 | −0.202 | −0.084 | 0.219 | 0.092 |  |
| O=C1CC(=O)c2c(Cl)c(Cl)c(Cl)c(Cl)c21 [TCID] | 0.431 | 0.049 | −0.155 | −0.018 | 0.578 | 0.066 | −0.159 | −0.018 | 0.062 | 0.017 | −0.066 | −0.054 | −0.325 | −0.136 | −0.017 | −0.007 | −0.517 | −0.217 | −0.545 | −0.228 |  |
| COc1ccc(C(=O)Nc2sc3c(c2C(N)=O)CCCC3)cc1OC [TCS 359] | 0.742 | 0.085 | 0.502 | 0.058 | 0.156 | 0.018 | −0.072 | −0.008 | 0.098 | 0.069 | −0.006 | 0.026 | 0.358 | 0.150 | 0.598 | 0.250 | 0.119 | 0.050 | −0.212 | −0.089 |  |
| Nc1nc(N)c2nc(-c3cccc(O)c3)c(-c3cccc(O)c3)nc2n1 [TG100-115] |  |  |  |  |  |  |  |  |  |  |  |  |  |  |  |  |  |  |  |  | Z.LYZ.NS (standard z score) (ISC-enriched organoids [1]; dose 0.08 uM): 1.812; Dose.FC.LYZ.NS (log 2 fold change, basal lysozyme secretion) (ISC-enriched organoids [1]; dose 0.08 uM): 0.208; Z.LYZ.NS (standard z score) (ISC-enriched organoids [1]; dose 0.40 uM): −0.223; Dose.FC.LYZ.NS (log 2 fold change, basal lysozyme secretion) (ISC-enriched organoids [1]; dose 0.40 uM): −0.026; Z.LYZ.NS (standard z score) (ISC-enriched organoids [1]; dose 2.00 uM): 0.025; Dose.FC.LYZ.NS (log 2 fold change, basal lysozyme secretion) (ISC-enriched organoids [1]; dose 2.00 uM): 0.003; Z.LYZ.NS (standard z score) (ISC-enriched organoids [1]; dose 10.00 uM): −0.223; Dose.FC.LYZ.NS (log 2 fold change, basal lysozyme secretion) (ISC-enriched organoids [1]; dose 10.00 uM): −0.026; Dose.FC.LYZ.S (log 2 fold change, carbachol-induced lysozyme secretion) (ISC-enriched organoids [2]; dose 0.08 uM): 0.073; Dose.FC.LYZ.S (log 2 fold change, carbachol-induced lysozyme secretion) (ISC-enriched organoids [2]; dose 0.40 uM): 0.032; Dose.FC.LYZ.S (log 2 fold change, carbachol-induced lysozyme secretion) (ISC-enriched organoids [2]; dose 2.00 uM): −0.019; Dose.FC.LYZ.S (log 2 fold change, carbachol-induced lysozyme secretion) (ISC-enriched organoids [2]; dose 10.00 uM): −0.100; Z.CTG (standard z score) (ISC-enriched organoids [3]; dose 0.08 uM): −0.611; Dose.FC.CTG (log 2 fold change, ATP) (ISC-enriched organoids [3]; dose 0.08 uM): −0.256; Z.CTG (standard z score) (ISC-enriched organoids [3]; dose 0.40 uM): 0.158; Dose.FC.CTG (log 2 fold change, ATP) (ISC-enriched organoids [3]; dose 0.40 uM): 0.066; Z.CTG (standard z score) (ISC-enriched organoids [3]; dose 2.00 uM): −0.031; Dose.FC.CTG (log 2 fold change, ATP) (ISC-enriched organoids [3]; dose 2.00 uM): −0.013; Z.CTG (standard z score) (ISC-enriched organoids [3]; dose 10.00 uM): −0.277; Dose.FC.CTG (log 2 fold change, ATP) (ISC-enriched organoids [3]; dose 10.00 uM): −0.116 |
| NC(=O)Nc1sc(-c2ccc(F)cc2)cc1C(N)=O [TPCA-1] |  |  |  |  |  |  |  |  |  |  |  |  |  |  |  |  |  |  |  |  | Z.LYZ.NS (standard z score) (ISC-enriched organoids [1]; dose 0.08 uM): 0.627; Dose.FC.LYZ.NS (log 2 fold change, basal lysozyme secretion) (ISC-enriched organoids [1]; dose 0.08 uM): 0.072; Z.LYZ.NS (standard z score) (ISC-enriched organoids [1]; dose 0.40 uM): −0.413; Dose.FC.LYZ.NS (log 2 fold change, basal lysozyme secretion) (ISC-enriched organoids [1]; dose 0.40 uM): −0.047; Z.LYZ.NS (standard z score) (ISC-enriched organoids [1]; dose 2.00 uM): −0.514; Dose.FC.LYZ.NS (log 2 fold change, basal lysozyme secretion) (ISC-enriched organoids [1]; dose 2.00 uM): −0.059; Z.LYZ.NS (standard z score) (ISC-enriched organoids [1]; dose 10.00 uM): −1.711; Dose.FC.LYZ.NS (log 2 fold change, basal lysozyme secretion) (ISC-enriched organoids [1]; dose 10.00 uM): −0.197; Dose.FC.LYZ.S (log 2 fold change, carbachol-induced lysozyme secretion) (ISC-enriched organoids [2]; dose 0.08 uM): 0.041; Dose.FC.LYZ.S (log 2 fold change, carbachol-induced lysozyme secretion) (ISC-enriched organoids [2]; dose 0.40 uM): −0.029; Dose.FC.LYZ.S (log 2 fold change, carbachol-induced lysozyme secretion) (ISC-enriched organoids [2]; dose 2.00 uM): −0.054; Dose.FC.LYZ.S (log 2 fold change, carbachol-induced lysozyme secretion) (ISC-enriched organoids [2]; dose 10.00 uM): −0.294; Z.CTG (standard z score) (ISC-enriched organoids [3]; dose 0.08 uM): −0.146; Dose.FC.CTG (log 2 fold change, ATP) (ISC-enriched organoids [3]; dose 0.08 uM): −0.061; Z.CTG (standard z score) (ISC-enriched organoids [3]; dose 0.40 uM): −0.010; Dose.FC.CTG (log 2 fold change, ATP) (ISC-enriched organoids [3]; dose 0.40 uM): −0.004; Z.CTG (standard z score) (ISC-enriched organoids [3]; dose 2.00 uM): −0.012; Dose.FC.CTG (log 2 fold change, ATP) (ISC-enriched organoids [3]; dose 2.00 uM): −0.005; Z.CTG (standard z score) (ISC-enriched organoids [3]; dose 10.00 uM): −1.269; Dose.FC.CTG (log 2 fold change, ATP) (ISC-enriched organoids [3]; dose 10.00 uM): −0.531 |
